Measured values from ChEMBL document CHEMBL4052721, “Gerontoxanthone B from Maclura cochinchinensis var. gerontogea exhibits anti-inflammatory potential as an aryl hydrocarbon receptor agonist” (Bioorg Med Chem, 2017).

Columns and labels:
Type in all cases: cell-based
[1] = target: T1, Aryl hydrocarbon receptor (Homo sapiens, UniProt P35869); assay: Agonist activity at AhR in human HepG2 cells at 10 uM after 42 hrs by luciferase reporter gene assay relative to control; settings: read-out: FC
T1 sequence (P35869 whole entry): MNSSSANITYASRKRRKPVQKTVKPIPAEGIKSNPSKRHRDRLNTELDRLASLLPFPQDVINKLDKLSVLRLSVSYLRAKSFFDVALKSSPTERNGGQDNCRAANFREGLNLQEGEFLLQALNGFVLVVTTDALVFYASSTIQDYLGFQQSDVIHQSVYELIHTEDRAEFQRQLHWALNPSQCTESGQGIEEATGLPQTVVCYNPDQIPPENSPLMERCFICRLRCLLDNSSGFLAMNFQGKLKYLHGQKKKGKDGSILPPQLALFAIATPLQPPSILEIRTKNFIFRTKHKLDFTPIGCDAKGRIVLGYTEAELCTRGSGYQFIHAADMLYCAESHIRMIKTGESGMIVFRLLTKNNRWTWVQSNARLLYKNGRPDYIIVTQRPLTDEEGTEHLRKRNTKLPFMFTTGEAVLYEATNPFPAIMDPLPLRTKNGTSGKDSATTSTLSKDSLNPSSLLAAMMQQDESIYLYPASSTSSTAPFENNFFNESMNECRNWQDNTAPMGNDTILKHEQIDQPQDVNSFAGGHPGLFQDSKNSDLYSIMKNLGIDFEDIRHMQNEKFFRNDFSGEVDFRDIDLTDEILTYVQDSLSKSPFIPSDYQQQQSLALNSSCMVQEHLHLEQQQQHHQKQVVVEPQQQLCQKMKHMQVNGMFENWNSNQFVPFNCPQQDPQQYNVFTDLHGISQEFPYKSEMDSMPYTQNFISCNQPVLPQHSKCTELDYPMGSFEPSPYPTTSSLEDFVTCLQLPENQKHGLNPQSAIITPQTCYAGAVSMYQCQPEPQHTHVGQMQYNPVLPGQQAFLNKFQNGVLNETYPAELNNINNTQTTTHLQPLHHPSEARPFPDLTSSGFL

[2] = target: T1, Aryl hydrocarbon receptor; assay: Agonist activity at AhR in human HepG2 cells at 1 to 10 uM after 42 hrs by luciferase reporter gene assay relative to control
[3] = target: T1, Aryl hydrocarbon receptor; assay: Agonist activity at AhR in human HepG2 cells at 5 to 20 nM after 42 hrs in presence of AhR antagonist GNF-351 by luciferase reporter gene assay
[4] = target: T1, Aryl hydrocarbon receptor; assay: Agonist activity at AhR in human HepG2 cells at 5 to 20 nM after 42 hrs in presence of AhR antagonist 3',4'-DMF by luciferase reporter gene assay
[5] = target: T1, Aryl hydrocarbon receptor; assay: Agonist activity at AhR in human HuH7 cells assessed as reduction in IL-1beta induced increase in SAA1 mRNA level at 10 nM pretreated for 20 hrs followed by Il-1beta addition measured after 4 hrs by qRT-PCR analysis; settings: 0.01 µM
HepG2 [6] = assay: Cytotoxicity against human HepG2 cells at 1 uM; settings: hepg2, 1 µM
[7] = target: T1, Aryl hydrocarbon receptor; assay: Agonist activity at AhR in human HepG2 cells after 42 hrs by luciferase reporter gene assay
HepG2 [8] = assay: Cytotoxicity against human HepG2 cells at 20 uM; settings: hepg2, 20 µM
[9] = target: T1, Aryl hydrocarbon receptor; assay: Agonist activity at AhR in human HepG2 cells at 2.5 to 10 uM after 42 hrs in presence of AhR antagonist GNF-351 by luciferase reporter gene assay
[10] = target: T1, Aryl hydrocarbon receptor; assay: Agonist activity at AhR in human HepG2 cells at 2.5 to 10 uM after 42 hrs in presence of AhR antagonist 3',4'-DMF by luciferase reporter gene assay
[11] = target: T1, Aryl hydrocarbon receptor; assay: Agonist activity at AhR in human HepG2 cells at 2.5 to 10 uM after 42 hrs in presence of AhR antagonist CH-223191 by luciferase reporter gene assay
[12] = target: T1, Aryl hydrocarbon receptor; assay: Agonist activity at AhR in human HuH7 cells assessed as reduction in IL-1beta induced increase in SAA1 mRNA level at 10 uM pretreated for 20 hrs followed by Il-1beta addition measured after 4 hrs by qRT-PCR analysis

CC(C)=CCc1c(O)ccc2oc3c4c(cc(O)c3c(=O)c12)OC(C)(C)C=C4
fold induction at 10 µM [1]: ≥ 2

C=CC(C)(C)c1c(O)cc2oc3c(O)c(OCC=C(C)C)ccc3c(=O)c2c1O
fold change (FC) [2]: >= 2

Clc1cc2c(cc1Cl)Oc1cc(Cl)c(Cl)cc1O2 [2,3,7,8-TETRACHLORODIBENZO-P-DIOXIN]
Activity [3]: Not Active
Activity [4]: Not Active
Activity [5]: Active

CC1Oc2cc3oc4c(O)c5c(cc4c(=O)c3c(O)c2C1(C)C)C=CC(C)(C)O5 (stereo unspecified) [GERONTOXANTHONE A]
fold change (FC) [2]: >= 2
Activity (HepG2 [6]): Toxic

C=CC(C)(C)c1c(O)cc2oc3c(O)c4c(cc3c(=O)c2c1O)C=CC(C)(C)O4 [GERONTOXANTHONE B]
fold change (FC) [2]: >= 2
Activity [7]: Dose-dependent effect
Activity (HepG2 [8]): Toxic
Activity [9]: Not Active
Activity [10]: Not Active
Activity [11]: Active
Activity [12]: Active

CC(C)=CCc1c(O)cc(O)c2c(=O)c3c(CC=C(C)C)c(O)ccc3oc12 [GERONTOXANTHONE H]
fold change (FC) [2]: >= 2

C=CC(C)(C)c1c(O)c(CC=C(C)C)c(O)c2c(=O)c3ccc(O)c(O)c3oc12 [GERONTOXANTHONE I]
fold induction at 10 µM [1]: ≥ 2
